Assay results from article PMC11911254 (Pharmacological Reports, 2025).

Assay: Concentration of paracetamol and its metabolites in plasma, CSF and brain cortex by LC-MS/MS
Details: for Concentration in CSF / Concentration in brain / Concentration in plasma: E19 rats; for concentration at 30 min: both, Sprague Dawley, rat, intraperitoneal, P4 rats
Method: Drug injection protocol is illustrated in Fig. 1.
Male and female postnatal P4 pups and 7–8 week-old non-pregnant females were used. […] In combination therapy experiments, this dose was accompanied by one of the 7 other drugs (Table 1). For all experiments, animals were terminally anesthetized 30 min after the drug injection using inhaled isoflurane (IsoFlo 100% w/w, Abbott Laboratories), and blood, CSF, and brain samples were collected. Blood was collected directly from the right cardiac ventricle, CSF from the cisterna magna, and cortical brain samples from the frontal/parietal lobes dorsal to the lateral ventricles as described previously.
Pregnant E19 dams were anesthetized with ip urethane injection (25% w/v urethane, Sigma, 1 ml/100 g body weight) and placed on a 39 °C heating pad in the supine position. An endotracheal catheter was inserted to maintain a clear airway. Catheters were inserted into the femoral vein and artery for iv drug administration and arterial blood sampling respectively. The cannula was flushed with 0.5 ml of heparinized saline (Hospira Inc, 5,000 units/ml) after drug administration and following each arterial blood sample. Following drug administration to the dams, fetuses were exteriorized and serially collected starting at 30 min post-maternal injection. […] At collection, the viability of each fetus was assessed (presence of a heartbeat, the colour of the umbilical vessels) and blood, CSF, and brain samples were taken along with a time-matched maternal blood sample from the femoral artery. At the end of the experiment, a final maternal blood sample was taken directly from the left cardiac ventricle, and CSF and brain samples were collected.
This method has been described previously for valproate, lamotrigine, and olanzapine and was applied in the present study. Simultaneous quantification was performed for all compounds in plasma, brain, and CSF samples following the addition of respective stable isotope-labeled internal standards.
Linear response range was determined in untreated control rat plasma for each compound at 0.1, 1, 10, 50, 100, 200, 400, and 800 µg/ml.

[1] = maternal iv paracetamol 15 mg/kg + cimetidine 11 mg/kg (PARA+CIM, n=10), median (IQR)
[2] = maternal iv paracetamol 15 mg/kg + digoxin 0.03 mg/kg (PARA+DIG, n=9), median (IQR)
[3] = maternal iv paracetamol 15 mg/kg + lamotrigine 6 mg/kg (PARA+LTG, n=10), median (IQR)
[4] = maternal iv paracetamol 15 mg/kg + olanzapine 0.15 mg/kg (PARA+OLZ, n=10), median (IQR), all values if <3 detected
[5] = maternal iv paracetamol 15 mg/kg + valproate 30 mg/kg (PARA+VPA, n=10), median (IQR), all values if <3 detected
[6] = maternal iv paracetamol 15 mg/kg monotherapy (PARA, n=10), median (IQR)

## CC(=O)Nc1ccc(O)cc1 [Paracetamol, reference compound]
[1]
  Concentration in CSF: 7.2 (1.7) µg/ml
  Concentration in brain: 10.2 (5.7) µg/ml
  Concentration in plasma: 7.6 (2.5) µg/ml
[2]
  Concentration in CSF: 6.5 (2.2) µg/ml
  Concentration in brain: 6.6 (3.0) µg/ml
  Concentration in plasma: 5.8 (2.2) µg/ml
[3]
  Concentration in CSF: 6.3 (3.4) µg/ml
  Concentration in brain: 8 (2.6) µg/ml
  Concentration in plasma: 6.2 (3.7) µg/ml
Maternal iv paracetamol 15 mg/kg + olanzapine 0.15 mg/kg (PARA+OLZ, n=10), median (IQR)
  Concentration in plasma: 4.1 (3.7) µg/ml
[4]
  Concentration in CSF: 4.7 (4.0) µg/ml
  Concentration in brain: 8.7 (3.9) µg/ml
Maternal iv paracetamol 15 mg/kg + olanzapine 0.15 mg/kg (PARA+OLZ, n=10), median (IQR), listed as paracetamol
  Concentration in plasma: 4.1 µg/mL
Maternal iv paracetamol 15 mg/kg + valproate 30 mg/kg (PARA+VPA, n=10), median (IQR)
  Concentration in CSF: 5.9 (2.1) µg/ml
[5]
  Concentration in brain: 6.9 (2.1) µg/ml
  Concentration in plasma: 6.0 (2.5) µg/ml
[6]
  Concentration in CSF: 8.0 (3.2) µg/ml
  Concentration in brain: 9.3 (5.0) µg/ml
  Concentration in plasma: 7.5 (2.9) µg/ml
Maternal iv paracetamol 15 mg/kg monotherapy (PARA, n=10), median (IQR), listed as paracetamol
  Concentration in plasma: 7.5 µg/mL
adults, any of the drugs investigated, Kruskal-Wallis test
  change in plasma concentration following combination therapy: no significant changes
CSF, 15 mg/kg, Concentration in CSF, 30 min after ip paracetamol 15 mg/kg monotherapy (PARA, n=4), median (IQR)
  concentration at 30 min: 7000 ng/mL
CSF, Concentration in CSF, 30 min after ip paracetamol 15 mg/kg + cimetidine 11 mg/kg (PARA+CIM, n=4), median (IQR)
  concentration at 30 min: 6200 ng/mL
CSF, Concentration in CSF, 30 min after ip paracetamol 15 mg/kg + digoxin 0.03 mg/kg (PARA+DIG, n=4), median (IQR)
  concentration at 30 min: 6300 ng/mL
CSF, Concentration in CSF, 30 min after ip paracetamol 15 mg/kg + fluvoxamine 1.5 mg/kg (PARA+FLX, n=4), median (IQR)
  concentration at 30 min: 9400 ng/mL
CSF, Concentration in CSF, 30 min after ip paracetamol 15 mg/kg + lamotrigine 6 mg/kg (PARA+LTG, n=5), median (IQR)
  concentration at 30 min: 7200 ng/mL
CSF, Concentration in CSF, 30 min after ip paracetamol 15 mg/kg + lithium 3.2 mg/kg (PARA+Li, n=4), median (IQR)
  concentration at 30 min: 4700 ng/mL
CSF, Concentration in CSF, 30 min after ip paracetamol 15 mg/kg + olanzapine 0.15 mg/kg (PARA+OLZ, n=4), median (IQR)
  concentration at 30 min: 5300 ng/mL
CSF, Concentration in CSF, 30 min after ip paracetamol 15 mg/kg + valproate 30 mg/kg (PARA+VPA, n=4), median (IQR)
  concentration at 30 min: 6400 ng/mL
Brain cortex, 15 mg/kg, Concentration in brain, 30 min after ip paracetamol 15 mg/kg monotherapy (PARA, n=4), median (IQR)
  concentration at 30 min: 8900 ng/mL
Brain cortex, Concentration in brain, 30 min after ip paracetamol 15 mg/kg + cimetidine 11 mg/kg (PARA+CIM, n=4), median (IQR)
  concentration at 30 min: 9000 ng/mL
Brain cortex, Concentration in brain, 30 min after ip paracetamol 15 mg/kg + digoxin 0.03 mg/kg (PARA+DIG, n=4), median (IQR)
  concentration at 30 min: 10300 ng/mL
Brain cortex, Concentration in brain, 30 min after ip paracetamol 15 mg/kg + fluvoxamine 1.5 mg/kg (PARA+FLX, n=4), median (IQR) or individual values
  concentration at 30 min: 8700 ng/mL
Brain cortex, Concentration in brain, 30 min after ip paracetamol 15 mg/kg + lamotrigine 6 mg/kg (PARA+LTG, n=5), median (IQR)
  concentration at 30 min: 9900 ng/mL
Brain cortex, Concentration in brain, 30 min after ip paracetamol 15 mg/kg + lithium 3.2 mg/kg (PARA+Li, n=4), median (IQR)
  concentration at 30 min: 7600 ng/mL
Brain cortex, Concentration in brain, 30 min after ip paracetamol 15 mg/kg + olanzapine 0.15 mg/kg (PARA+OLZ, n=4), median (IQR)
  concentration at 30 min: 6900 ng/mL
